Series [1] concerns T3SS-mediated secretion of ExoS′-βLA fusion protein from P. aeruginosa strain MDM973. Nature of the series: microbe, parasite or virus in culture. The format is cell-based, Pseudomonas aeruginosa.
Series [2] concerns ExoU translocation from P. aeruginosa strain PAKΔSTYexoU into CHO cells. Nature of the series: Inhibition of P. aeruginosa ExoU-dependent CHO cell killing (LDH release). Conditions: ExoU-secreting P. aeruginosa, MOI 5. Background: LDH leaks from cells whose membrane has failed.
The test system of series [3] is P. aeruginosa T3SS (exoT-luxCDABE reporter strain MDM852). The format is cell-based, Pseudomonas aeruginosa. Conditions: both at 50 μM compound; for Serum Effect: % inhibition of exoT-lux RLU in the absence of serum/% inhibition in the presence of 10% fetal calf serum; for RLU Selectivity / RLU-S (RLU Selectivity): % inhibition of exoT-lux RLU/% inhibition of lac-lux RLU; for RLU-S (RLU Selectivity): Table 5.

For series [4], the system named is T3SS-mediated secretion of YopE-βLA fusion protein from Y. pestis strain JG153/pMM85. Nature of the series: microbe, parasite or virus in culture. It counts as cell-based. Conditions: Yersinia pestis, read-out: yopE-βLA IC50.
Another series relates to HeLa cells. Conditions: ratio of HeLa CC50 vs ExoS′-βLA IC50.
The next series in a line: in vitro. Conditions: human.
In the next series the test system is P. aeruginosa. Nature of the series: Minimum inhibitory concentration (broth microdilution). Conditions: Pseudomonas aeruginosa, read-out: MIC vs. P. aeruginosa.
The mark [5] stands for this setting: Pseudomonas aeruginosa, read-out: IC50 (μM) (ExoS′-βLA assay), Table 4.
Where [6] appears, read: Pseudomonas aeruginosa, read-out: ExoS′-βLA IC50, Table 3, secretion from P. aeruginosa strain MDM973 reduced by 50%.
[7] abbreviates: Pseudomonas aeruginosa, read-out: IC50 in the ExoS′-βLA secretion assay.
[8] abbreviates: CC50 (cytotoxicity, HeLa), absence of serum.
[9] abbreviates: Pseudomonas aeruginosa, read-out: ExoS′-βLA IC50, Table 5, P. aeruginosa strain MDM973.
[10] abbreviates: Table 4, read-out: IC50 (μM) (ExoS′-βLA assay).

pIC50: −log10 of the molar value. Like-named read-outs stand apart in the source and are kept apart here. Some results are limits rather than exact numbers.

On to `CC(Oc1ccc(Cl)cc1Cl)C(=O)NCc1ccco1` (racemic) [compound 5685325, 2-(2,4-dichlorophenoxy)-N-(2-furylmethyl)propanamide], for which the concentration for half-maximal inhibition (IC50) in series [1] (setting [5]) is 25 µM. In series [2], the “rescue of CHO cells from ExoU cytotoxicity (in words)” value (shortened to “rescue of CHO cells”) is listed as “rescued CHO cells”.
`Cc1ccc(CNC(=O)C(C)Oc2ccc(Cl)cc2Cl)cc1` (racemic) [compound 6109233, 2-(2,4-dichlorophenoxy)-N-(4-methylbenzyl)propanamide]: in series [1] (setting [5]), the IC50 is 5 µM.
Same read-out and setting: to `Cc1cc(Cl)ccc1OC(C)C(=O)NCc1ccc2c(c1)OCO2` (racemic) [compound 6116488, N-(1,3-benzodioxol-5-ylmethyl)-2-(4-chloro-2-methylphenoxy)propanamide] belongs 98 µM; to `CC(Oc1ccc(Cl)cc1Cl)C(=O)NCc1ccncc1` (racemic) [compound 6372013, 2-(2,4-dichlorophenoxy)-N-(4-pyridinylmethyl)propanamide], 59 µM.
Still for that read-out and setting: the result for `COc1ccccc1CNC(=O)C(C)Oc1ccc(Cl)cc1Cl` (racemic) [compound 6374948, 2-(2,4-dichlorophenoxy)-N-(2-methoxybenzyl)propanamide] reads 12 µM; that for `COc1ccc(CNC(=O)C(C)Oc2ccc(Cl)cc2Cl)cc1` (racemic) [compound 6375680, 2-(2,4-dichlorophenoxy)-N-(4-methoxybenzyl)propanamide], 10 µM.
For `CC(Oc1ccc(Cl)cc1Cl)C(=O)NCc1ccc(F)cc1` (racemic) [compound 6380194, 2-(2,4-dichlorophenoxy)-N-(4-fluorobenzyl)propanamide], the concentration for half-maximal inhibition (IC50) in series [1] (setting [5]) came to 9 µM. The “rescue of CHO cells” value in series [2] was “rescued CHO cells”.
For `CC(Oc1ccc(Cl)cc1Cl)C(=O)NCCC1=CCCCC1` (racemic) [compound 6467504, N-[2-(1-cyclohexen-1-yl)ethyl]-2-(2,4-dichlorophenoxy)propanamide], the IC50 in series [1] (setting [5]) was > 100 µM.
On the same count and under the same terms, to `CC(Oc1ccc(Cl)cc1Cl)C(=O)N(C)Cc1ccccc1` (racemic) [compound 6468028, N-benzyl-2-(2,4-dichlorophenoxy)-N-methylpropanamide] belongs 21 µM.
Regarding `CC(Oc1ccc(Cl)cc1Cl)C(=O)NCc1ccc(Cl)c(Cl)c1` (racemic) [compound 7271715, N-(3,4-dichlorobenzyl)-2-(2,4-dichlorophenoxy)propanamide], the concentration for half-maximal inhibition (IC50) in series [1] (setting [5]) is > 100 µM.
Same read-out and setting: the result for `Cc1nn(C)cc1CNC(=O)C(C)Oc1ccc(Cl)cc1Cl` (racemic) [compound 8804126, 2-(2,4-dichlorophenoxy)-N-[(1,3-dimethyl-1H-pyrazol-4-yl)methyl]propanamide] reads 61 µM; that for `CC(Oc1ccccc1Cl)C(=O)NCc1ccc2c(c1)OCO2` (racemic) [compound 9153915, N-(1,3-benzodioxol-5-ylmethyl)-2-(2-chlorophenoxy)propanamide], 23 µM.
As to `O=C(CC1Sc2ncnn2C1=O)Nc1ccccc1` (centres unmarked) [Compound 2, 2-(6-oxo-5,6-dihydrothiazolo[3,2-b][1,2,4]triazol-5-yl)-N-phenylacetamide], the “Serum Effect” value in series [3] is recorded as 2. Also, the “RLU Selectivity” value in series [3] worked out at 2.6. The pIC50 is 4.92 in series [1] (setting [6]) and 5.21 in series [4]. Further, in the series with HeLa cells, the CC50/IC50 turned out to be 3.1. This compound also showed a CC50 in the series “in vitro” (HeLa CC50) of 37 µM.
With `CCN1CCOC(CC(=O)Nc2ccc3c(c2)OCCO3)C1=O` (centres unmarked) [Compound 3, N-(2,3-dihydrobenzo[b][1,4]dioxin-6-yl)-2-(4-ethyl-3-oxomorpholin-2-yl)acetamide], in series [3], the “Serum Effect” value is recorded as 4.8. The “RLU Selectivity” value in series [3] came to 4.1. Also, the negative logarithm of the IC50 (pIC50) in series [1] (setting [6]) is 4.70; in series [1] (setting [7]), ≥ 4.60; in series [4] it was 4.80. Also, in the series with HeLa cells, the CC50/IC50 is given as >5.0. The CC50 in the series “in vitro” (setting [8]) is ≥ 100 µM; in “in vitro” (HeLa CC50), > 100 µM. Also, the minimum inhibitory concentration (MIC) in the series with P. aeruginosa is > 100 µM. For the same compound, the “rescue of CHO cells” value in series [2] is “failed to inhibit T3SS-mediated translocation”.
As for `CCN1CCOC(CC(=O)Nc2ccc(F)cc2)C1=O` (centres unmarked) [Compound 4, 2-(4-ethyl-3-oxomorpholin-2-yl)-N-(4-fluorophenyl)acetamide], in series [3], the “Serum Effect” value is 4.2. Moreover, the “RLU Selectivity” value in series [3] came out at 3.9. Also, the values for the negative logarithm of the IC50 (pIC50) in series [1] (setting [6]), in series [1] (setting [7]) and in series [4] were 4.89, ≥ 4.60 and 5.22, respectively. The CC50/IC50 in the series on HeLa cells is recorded as 6.2. Also, the CC50 in the series “in vitro” (setting [8]) was ≥ 100 µM; in the series “in vitro” (HeLa CC50), 100 µM. In the series with P. aeruginosa, the minimum inhibitory concentration (MIC) is > 100 µM. In addition, the “rescue of CHO cells” value in series [2] was “failed to inhibit T3SS-mediated translocation”.
As for `Cc1ccc(NC(=O)/C=C/C(=O)OCC(F)(F)C(F)F)cc1` [Compound 5, (E)-2,2,3,3-tetrafluoropropyl 4-oxo-4-(p-tolylamino)but-2-enoate], in series [3], the “Serum Effect” value came out at 2.6 and the “RLU Selectivity” value is reported as 4.5. Also, the pIC50 in series [1] (setting [6]) was 4.66. The CC50/IC50 in the series with HeLa cells stood at 1.3. This compound had a CC50 in the series “in vitro” (HeLa CC50) of 28 µM.
For `NC(=O)/C=C/C(=O)Nc1ccccc1` [Compound 6, N1-phenylfumaramide] the same measures were 1.5, 3.6, 4.72, 1.8 and 35 µM.
As for `NC(=O)/C=C/C(=O)Nc1ccccc1Cl` [Compound 7, N1-(2-chlorophenyl)fumaramide], in series [3], the “Serum Effect” value amounted to 1.5 and the “RLU Selectivity” value came to 4.7. Further, the pIC50 in series [1] (setting [6]) is 4.77. In addition, the CC50/IC50 with HeLa cells stood at 2.4. The CC50 in “in vitro” (HeLa CC50) was 40 µM.
On to `CCc1ccc2nc(N3C(=O)C(O)=C(C(=O)c4cccs4)C3c3ccc([N+](=O)[O-])cc3)sc2c1` (centres unmarked) [Compound 10, 1-(6-ethylbenzo[d]thiazol-2-yl)-3-hydroxy-5-(4-nitrophenyl)-4-(thiophene-2-carbonyl)-1H-pyrrol-2(5H)-one], for which, in series [3], the “Serum Effect” value amounted to 1.8 and the “RLU Selectivity” value is given as 3.8. In addition, the pIC50 in series [1] (setting [6]) was 5.52. The pIC50 in series [4] is 5.39. Besides, in the series with HeLa cells, the CC50/IC50 is 5.3. The compound further showed a CC50 in “in vitro” (HeLa CC50) of 16 µM.
`CN1CCN(C(=S)c2ccc(N(C)C)cc2)CC1` [Compound 11, (4-(dimethylamino)phenyl)(4-methylpiperazin-1-yl)methanethione]: the “Serum Effect” value in series [3] worked out at 1. The “RLU Selectivity” value in series [3] turned out to be 22. Further, the pIC50 in series [1] (setting [6]) and in series [4] was 4.72 each time. Besides, the CC50/IC50 with HeLa cells was 0.9. The compound further returned a CC50 in “in vitro” (HeLa CC50) of 18 µM.
With `Cc1nnc(-c2ccc(OCC(=O)N3CCc4ccccc43)cc2)o1` [F5054-0019, 1-(indolin-1-yl)-2-(4-(5-methyl-1,3,4-oxadiazol-2-yl)phenoxy)ethanone], the “RLU-S (RLU Selectivity)” value in series [3] is 10.8. For the same compound, the pIC50 in series [1] (setting [9]) is 4.65.
As for `O=C(COc1ccc(Cl)cc1Cl)NCc1ccc2c(c1)OCO2` [MBX 1668, N-[3,4-(methylenedioxy)benzyl]-2-(2,4-dichlorophenoxy)acetamide], in series [1] (setting [10]), the half-inhibitory concentration (IC50) was > 100 µM.
With `C[C@@H](Oc1ccc(Cl)cc1Cl)C(=O)NCc1ccc2c(c1)OCO2` [MBX 1684, (R)-N-(benzo[d][1,3]dioxol-5-ylmethyl)-2-(2,4-dichlorophenoxy)propanamide], in series [1] (ExoS′-βLA reporter assay), the “T3SS inhibitory activity (active/inactive)” value is given as “active”. Besides, in series [1] (setting [5]), the half-inhibitory concentration (IC50) turned out to be 6 µM. Further, in series [1] (setting [7]), the pIC50 was ~5.22.
As for `CC(C)(Oc1ccc(Cl)cc1Cl)C(=O)NCc1ccc2c(c1)OCO2` [MBX 1685, N-[3,4-(methylenedioxy)benzyl]-2-(2,4-dichlorophenoxy)-2-methylpropanamide], the IC50 in series [1] (setting [10]) is > 100 µM.
For the compound `C[C@H](Oc1ccc(Cl)cc1Cl)C(=O)NCc1ccc2c(c1)OCO2` [MBX 1686, N-[3,4-(methylenedioxy)benzyl]-(S)-2-(2,4-dichlorophenoxy)propanamide], the “T3SS inhibitory activity (active/inactive)” value in series [1] was “inactive”. Moreover, in series [1] (setting [10]), the IC50 is > 100 µM. In addition, in series [1] (read-out: IC50 in the ExoS′-βLA secretion assay), the pIC50 is < 4.00.
As to `Oc1ccc(O)c(Cc2nc3ccccc3[nH]2)c1` [compound 6430631, 2-((1H-benzo[d]imidazol-2-yl)methyl)benzene-1,4-diol], the “RLU-S (RLU Selectivity)” value in series [3] was 4.2. Further, the pIC50 in series [1] (setting [9]) is 4.65.
For `CC(Oc1ccc(Cl)cc1Cl)C(=O)NC(C)C1CC2CCC1C2` (centres unmarked) [compound 7247834, N-(1-(bicyclo[2.2.1]heptan-2-yl)ethyl)-2-(2,4-dichlorophenoxy)propanamide] the same measures were 5.6 and 4.78.
On to `CC(Oc1ccccc1F)C(=O)NCc1ccc2c(c1)OCO2` (centres unmarked) [compound 7339628], for which the IC50 in series [1] (setting [10]) is > 100 µM.
As for pseudolipasin [reference compound], in series [2], the “rescue of CHO cells” value was “rescued CHO cells from ExoU toxicity with a similar potency”.

What is called IC50 is the point on the concentration scale where inhibition reaches its midpoint. Usually pIC50 stands for −log10 of the IC50, conventionally taken in molar units. As a reminder, the MIC is the smallest concentration in the dilution series that meets the test's criterion for growth inhibition.

Source of the values: US8906945B2 (priority 2009, dated 2014).
